Assay results from PubChem BioAssay AID1918947 (Molecular Pharmacology Branch, DTP, NCI, 2023).
“And” between values parts separate entries of the source, which are not always exact repeats. Identical values can stand only once.

System: A498 complex spheroid viability
Test: Anticancer human tumor A498 cell line growth inhibition;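 further: spheroids exposed to agents for seven days before readout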;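 on viability, T/C: 100% = DMSO vehicle-treated spheroids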
Details: for viability, T/C: stronger effect = lower value
In short: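 Drug combinations with the LSD1 inhibitor iadademstat tested on tumor cells co-cultured as spheroids with endothelial cells and mesenchymal stem cells. Concentrations descended in half-log increments from clinical Cmax or 10 microM.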

[1] = curve of first compound, second compound 0.1 µM
[2] = curve of first compound, second compound 0.316 µM
[3] = curve of first compound, second compound 1 µM
[4] = curve of first compound, second compound 3.16 µM
[5] = curve of first compound, second compound 10 µM
[6] = second compound 0.1 µM, first compound 0.0316 µM
[7] = second compound 0.1 µM, first compound 0.1 µM
[8] = second compound 0.1 µM, first compound 0.316 µM
[9] = second compound 0.1 µM, first compound 1 µM
[10] = second compound 0.1 µM, first compound 3.16 µM
[11] = second compound 0.1 µM, first compound 10 µM
[12] = second compound 0.316 µM, first compound 0.0316 µM
[13] = second compound 0.316 µM, first compound 0.1 µM
[14] = second compound 0.316 µM, first compound 0.316 µM
[15] = second compound 0.316 µM, first compound 1 µM
[16] = second compound 0.316 µM, first compound 3.16 µM
[17] = second compound 0.316 µM, first compound 10 µM
[18] = second compound 1 µM, first compound 0.0316 µM
[19] = second compound 1 µM, first compound 0.1 µM
[20] = second compound 1 µM, first compound 0.316 µM
[21] = second compound 1 µM, first compound 1 µM
[22] = second compound 1 µM, first compound 3.16 µM
[23] = second compound 1 µM, first compound 10 µM
[24] = second compound 3.16 µM, first compound 0.0316 µM
[25] = second compound 3.16 µM, first compound 0.1 µM
[26] = second compound 3.16 µM, first compound 0.316 µM
[27] = second compound 3.16 µM, first compound 1 µM
[28] = second compound 3.16 µM, first compound 3.16 µM
[29] = second compound 3.16 µM, first compound 10 µM
[30] = second compound 10 µM, first compound 0.0316 µM
[31] = second compound 10 µM, first compound 0.1 µM
[32] = second compound 10 µM, first compound 0.316 µM
[33] = second compound 10 µM, first compound 1 µM
[34] = second compound 10 µM, first compound 3.16 µM
[35] = second compound 10 µM, first compound 10 µM
[36] = second compound 0.1 µM, first compound 0.00949 µM
[37] = second compound 0.1 µM, first compound 0.03 µM
[38] = second compound 0.1 µM, first compound 0.0949 µM
[39] = second compound 0.1 µM, first compound 0.3 µM
[40] = second compound 0.316 µM, first compound 0.00949 µM
[41] = second compound 0.316 µM, first compound 0.03 µM
[42] = second compound 0.316 µM, first compound 0.0949 µM
[43] = second compound 0.316 µM, first compound 0.3 µM
[44] = second compound 1 µM, first compound 0.00949 µM
[45] = second compound 1 µM, first compound 0.03 µM
[46] = second compound 1 µM, first compound 0.0949 µM
[47] = second compound 1 µM, first compound 0.3 µM
[48] = second compound 3.16 µM, first compound 0.00949 µM
[49] = second compound 3.16 µM, first compound 0.03 µM
[50] = second compound 3.16 µM, first compound 0.0949 µM
[51] = second compound 3.16 µM, first compound 0.3 µM
[52] = second compound 10 µM, first compound 0.00949 µM
[53] = second compound 10 µM, first compound 0.03 µM
[54] = second compound 10 µM, first compound 0.0949 µM
[55] = second compound 10 µM, first compound 0.3 µM

COc1ccc([C@@H](O)c2cc(-c3ncnc4cc(N5CCOCC5)ccc34)c(F)cc2Cl)nn1 + NC1CCC(NC2CC2c2ccccc2)CC1
IC50 [1]: 0.113 µM
IC50 [2]: 0.154 µM
IC50 [3]: 0.128 µM
IC50 [4]: 0.13 µM
IC50 [5]: 0.126 µM
viability, T/C [6]: 80.5%
viability, T/C [7]: 53.5%
viability, T/C [8]: 28.8%
viability, T/C [9]: 20.4%
viability, T/C [10]: 11%
viability, T/C [11]: 6.4%
viability, T/C [12]: 79.6%
viability, T/C [13]: 58.5%
viability, T/C [14]: 35.6%
viability, T/C [15]: 23.3%
viability, T/C [16]: 12%
viability, T/C [17]: 6.71%
viability, T/C [18]: 70.6%
viability, T/C [19]: 55.2%
viability, T/C [20]: 32.8%
viability, T/C [21]: 19.6%
viability, T/C [22]: 10.3%
viability, T/C [23]: 6.44%
viability, T/C [24]: 69.3%
viability, T/C [25]: 54.4%
viability, T/C [26]: 35.4%
viability, T/C [27]: 21%
viability, T/C [28]: 9.68%
viability, T/C [29]: 5.91%
viability, T/C [30]: 66.8%
viability, T/C [31]: 54.1%
viability, T/C [32]: 35.2%
viability, T/C [33]: 23.5%
viability, T/C [34]: 10.1%
viability, T/C [35]: 5.83%

Nc1ccccc1NC(=O)c1ccc(CNC(=O)OCc2cccnc2)cc1 + NC1CCC(NC2CC2c2ccccc2)CC1
IC50 [1]: 0.203 µM
IC50 [2]: 0.222 µM
IC50 [3]: 0.215 µM
IC50 [4]: 0.177 µM
IC50 [5]: 0.214 µM
viability, T/C [36]: 80.6%
viability, T/C [37]: 76%
viability, T/C [38]: 65.8%
viability, T/C [39]: 42.1%
viability, T/C (second compound 0.1 µM, first compound 0.949 µM): 15.4%
viability, T/C (second compound 0.1 µM, first compound 3 µM): 1.76%
viability, T/C [40]: 86.7%
viability, T/C [41]: 83.8%
viability, T/C [42]: 66.4%
viability, T/C [43]: 44.6%
viability, T/C (second compound 0.316 µM, first compound 0.949 µM): 17%
viability, T/C (second compound 0.316 µM, first compound 3 µM): 1.4%
viability, T/C [44]: 76.8%
viability, T/C [45]: 79.6%
viability, T/C [46]: 68.4%
viability, T/C [47]: 40.9%
viability, T/C (second compound 1 µM, first compound 0.949 µM): 17.2%
viability, T/C (second compound 1 µM, first compound 3 µM): 1.13%
viability, T/C [48]: 73.6%
viability, T/C [49]: 67.3%
viability, T/C [50]: 59.8%
viability, T/C [51]: 42.7%
viability, T/C (second compound 3.16 µM, first compound 0.949 µM): 16%
viability, T/C (second compound 3.16 µM, first compound 3 µM): 0.8%
viability, T/C [52]: 62%
viability, T/C [53]: 59.3%
viability, T/C [54]: 57.4%
viability, T/C [55]: 47%
viability, T/C (second compound 10 µM, first compound 0.949 µM): 16.3%
viability, T/C (second compound 10 µM, first compound 3 µM): 0.91%

Nc1ncn(C2CC(O)C(CO)S2)c(=O)n1 (configuration not stated) + NC1CCC(NC2CC2c2ccccc2)CC1
IC50 [1]: 0.154 µM
IC50 [2]: 0.146 µM
IC50 [3]: 0.113 µM
IC50 [4]: 0.074 µM
IC50 [5]: 0.0484 µM
viability, T/C (second compound 0.1 µM, first compound 0.000949 µM): 101%
viability, T/C (second compound 0.1 µM, first compound 0.003 µM): 92.5%
viability, T/C [36]: 88.6%
viability, T/C [37]: 87.5%
viability, T/C [38]: 62.1%
viability, T/C [39]: 31.5%
viability, T/C (second compound 0.316 µM, first compound 0.000949 µM): 95.1%
viability, T/C (second compound 0.316 µM, first compound 0.003 µM): 98.7%
viability, T/C [40]: 98%
viability, T/C [41]: 95.2%
viability, T/C [42]: 58.4%
viability, T/C [43]: 36%
viability, T/C (second compound 1 µM, first compound 0.000949 µM): 90.4%
viability, T/C (second compound 1 µM, first compound 0.003 µM): 94.9%
viability, T/C [44]: 91.6%
viability, T/C [45]: 81.7%
viability, T/C [46]: 54.4%
viability, T/C [47]: 26.2%
viability, T/C (second compound 3.16 µM, first compound 0.000949 µM): 85.1%
viability, T/C (second compound 3.16 µM, first compound 0.003 µM): 83.5%
viability, T/C [48]: 90.6%
viability, T/C [49]: 75.8%
viability, T/C [50]: 43%
viability, T/C [51]: 23.7%
viability, T/C (second compound 10 µM, first compound 0.000949 µM): 74.5%
viability, T/C (second compound 10 µM, first compound 0.003 µM): 81.7%
viability, T/C [52]: 76.1%
viability, T/C [53]: 67.2%
viability, T/C [54]: 25.9%
viability, T/C [55]: 14.3%

CC(C)c1c(-c2ccccc2)nc2c(C#N)c[nH]n2c1=O + NC1CCC(NC2CC2c2ccccc2)CC1
IC50 [1]: > 10 µM
IC50 [2]: > 10 µM
IC50 [3]: > 10 µM
IC50 [4]: > 10 µM
IC50 [5]: > 10 µM
viability, T/C [6]: 88.3%
viability, T/C [7]: 87.8%
viability, T/C [8]: 89.3%
viability, T/C [9]: 87.3%
viability, T/C [10]: 91.3%
viability, T/C [11]: 86.5%
viability, T/C [12]: 84%
viability, T/C [13]: 85.8%
viability, T/C [14]: 87%
viability, T/C [15]: 87.8%
viability, T/C [16]: 82.7%
viability, T/C [17]: 85%
viability, T/C [18]: 88.8%
viability, T/C [19]: 86.4%
viability, T/C [20]: 89.2%
viability, T/C [21]: 88.2%
viability, T/C [22]: 86%
viability, T/C [23]: 86.9%
viability, T/C [24]: 84%
viability, T/C [25]: 79.9%
viability, T/C [26]: 82.3%
viability, T/C [27]: 87.6%
viability, T/C [28]: 83.8%
viability, T/C [29]: 82.4%
viability, T/C [30]: 64%
viability, T/C [31]: 69.3%
viability, T/C [32]: 66.3%
viability, T/C [33]: 69.6%
viability, T/C [34]: 66.4%
viability, T/C [35]: 69.5%

Cn1ncnc1C1c2n[nH]c(=O)c3cc(F)cc(c23)NC1c1ccc(F)cc1 (configuration not stated)
viability, T/C (compound 0.000316 µM): 98.4% and 110%
viability, T/C (compound 0.001 µM): 99.4% and 107%
viability, T/C (compound 0.00316 µM): 97.5% and 102%
viability, T/C (compound 0.01 µM): 106% and 103%
viability, T/C (compound 0.0316 µM): 95% and 99%
viability, T/C (compound 0.1 µM): 101% and 94.5%
IC50 (curve of compound): > 0.1 µM
